Structures are written as SMILES. Starred links: 1 amine or outer side, 2 acyl side, 3 side chain; linkers in the order of their positions; H or OH if unused. Non-standard residues stand in square brackets, D forms with d. Residues, ends and D or L forms follow the SMILES beside them. ξ: configuration not given here. *: point of attachment. X1 = O=C(O)C[C@@H](C(=O)[*:2])N(c1ccc([N+](=O)[O-])c2nonc12)[*:1]; NBD = O=[N+]([O-])c1ccc(*)c2nonc12; Nle = CCCC[C@H](N)C(=O)O; ξDab = NCCC(N)C(=O)O; Bz = O=C(c1ccccc1)*

C-X-C chemokine receptor type 4, sequence (P61073 whole entry): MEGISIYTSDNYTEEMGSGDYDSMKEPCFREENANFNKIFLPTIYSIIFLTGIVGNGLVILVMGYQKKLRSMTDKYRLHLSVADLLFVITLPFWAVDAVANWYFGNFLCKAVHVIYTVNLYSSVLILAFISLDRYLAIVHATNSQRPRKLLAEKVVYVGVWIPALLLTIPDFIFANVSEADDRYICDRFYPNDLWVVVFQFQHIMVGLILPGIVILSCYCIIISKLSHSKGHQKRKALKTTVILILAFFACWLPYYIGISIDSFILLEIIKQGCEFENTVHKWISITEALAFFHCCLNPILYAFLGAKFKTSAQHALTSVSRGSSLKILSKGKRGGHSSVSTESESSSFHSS

The first test concerns the target T1, Substance-K receptor (Homo sapiens, UniProt P21452).
T1 sequence (P21452 whole entry): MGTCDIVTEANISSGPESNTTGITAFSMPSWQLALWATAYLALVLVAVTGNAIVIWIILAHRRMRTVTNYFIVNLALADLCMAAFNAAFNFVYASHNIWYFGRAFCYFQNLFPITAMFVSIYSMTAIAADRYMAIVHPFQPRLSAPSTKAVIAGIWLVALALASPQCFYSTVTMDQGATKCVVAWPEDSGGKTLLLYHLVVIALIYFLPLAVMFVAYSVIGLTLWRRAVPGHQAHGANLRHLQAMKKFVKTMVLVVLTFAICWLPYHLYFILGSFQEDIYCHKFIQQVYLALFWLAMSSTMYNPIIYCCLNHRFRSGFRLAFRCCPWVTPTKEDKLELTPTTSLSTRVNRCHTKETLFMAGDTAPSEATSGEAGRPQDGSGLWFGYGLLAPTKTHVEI
Put plainly: Displacement of [3H]GR100679 from NK2 receptor (unknown origin) expressed in CHO/T cells. Format: cell-based.
In the case of `CCCC[C@H](NC(=O)[C@@H]1CCCN1C(=O)[C@H]1CCCN1C(=O)[C@H](Cc1ccccc1)NC(=O)[C@@H](Cc1c[nH]c2ccccc12)NC(=O)[C@H](C)NC(=O)C(CCNc1ccc([N+](=O)[O-])c2nonc12)NC(=O)c1ccccc1)C(N)=O` (some centres undefined), the Ki was 1.35 nM.
On the same count and under the same terms, the result for `CCCC[C@H](NC(=O)[C@@H]1CCCN1C(=O)[C@H]1CCCN1C(=O)[C@H](Cc1ccccc1)NC(=O)[C@@H](Cc1c[nH]c2ccccc12)NC(=O)[C@H](C)NC(=O)[C@H](CCCNc1ccc([N+](=O)[O-])c2nonc12)NC(=O)c1ccccc1)C(N)=O` reads 1.45 nM; that for `CCCC[C@H](NC(=O)[C@@H]1CCCN1C(=O)[C@H]1CCCN1C(=O)[C@H](Cc1ccccc1)NC(=O)[C@@H](Cc1c[nH]c2ccccc12)NC(=O)[C@H](C)NC(=O)[C@H](CCCCNCC(=O)Nc1ccc([N+](=O)[O-])c2nonc12)NC(=O)c1ccccc1)C(N)=O`, 1.58 nM.
Same read-out and setting: the result for `CSCC[C@H](NC(=O)[C@H](CC(C)C)NC(=O)CNC(=O)[C@@H](NC(=O)[C@H](Cc1ccccc1)NC(=O)[C@H](CO)NC(=O)[C@H](CC(=O)O)NC(=O)[C@@H](NC(=O)[C@H](CCCCN)NC(=O)[C@H](Cc1cnc[nH]1)Nc1ccc([N+](=O)[O-])c2nonc12)[C@@H](C)O)C(C)C)C(N)=O` reads 5.89 nM; that for `CCCC[C@H](NC(=O)[C@H](CC(C)C)NC(=O)CNC(=O)C(CCNc1ccc([N+](=O)[O-])c2nonc12)NC(=O)[C@H](Cc1ccccc1)NC(=O)[C@H](CO)NC(=O)[C@H](CC(=O)O)NC(C)=O)C(N)=O` (some centres undefined) (Ac-DSF[ξDab](NBD)GL[Nle]-NH2), 1950 nM; that for `CCCC[C@H](NC(=O)[C@@H]1CCCN1C(=O)[C@H]1CCCN1C(=O)[C@H](Cc1ccccc1)NC(=O)[C@@H](Cc1c[nH]c2ccccc12)NC(=O)[C@H](C)NC(=O)[C@H](C)NC(=O)c1ccccc1)C(N)=O` (Bz-AA[dW]F[dP]P[Nle]-NH2), 0.155 nM.
Take `CCCC[C@H](NC(=O)[C@H](CC(C)C)NC(=O)CNC(=O)[C@@H](NC(=O)[C@H](Cc1ccccc1)NC(=O)[C@H](CO)NC(=O)[C@H](CC(=O)O)Nc1ccc([N+](=O)[O-])c2nonc12)C(C)C)C(N)=O` (H-[X1]SFVGL[Nle]-NH2): the affinity, expressed as Ki, was 8.32 nM.

The next test has as its target C-X-C chemokine receptor type 4 (Homo sapiens, UniProt P61073). Nature of the test: Displacement of [125I]SDF1 from CXCR4 (unknown origin) expressed in CHO cells. Format: cell-based.
Take `CC(=O)N[C@@H](CCCNC(=N)N)C(=O)N[C@@H](CCCNC(=N)N)C(=O)N[C@@H](Cc1cccc2ccccc12)C(=O)N[C@H]1CSSC[C@@H](C(=O)N[C@@H](CCCNC(=N)N)C(N)=O)NC(=O)[C@H](CCCNC(N)=O)NC(=O)[C@H](CCCNC(=N)N)NC(=O)[C@H](Cc2ccc(O)cc2)NC(=O)[C@@H]2CCCN2C(=O)[C@@H](CCCCN)NC(=O)[C@H](CCCNC(=N)N)NC(=O)[C@H](CCCNC(N)=O)NC(=O)[C@H](Cc2ccc(O)cc2)NC1=O`: the half-inhibitory concentration (IC50) came out at 5.2 nM.
The compound `CC(=O)N[C@@H](CCCNC(=N)N)C(=O)N[C@@H](CCCNC(=N)N)C(=O)N[C@@H](Cc1cccc2ccccc12)C(=O)N[C@H]1CSSC[C@@H](C(=O)N[C@@H](CCCNC(=N)N)C(N)=O)NC(=O)[C@H](CCCNC(N)=O)NC(=O)[C@H](CCCNC(=N)N)NC(=O)[C@H](Cc2ccc(O)cc2)NC(=O)[C@@H]2CCCN2C(=O)[C@@H](CCC(=O)O)NC(=O)[C@H](CCCNC(=N)N)NC(=O)[C@H](CCCNC(N)=O)NC(=O)[C@H](Cc2ccc(O)cc2)NC1=O` yielded an IC50 of 6.7 nM.

(Values after ChEMBL document CHEMBL3351524, “Toward fluorescent probes for G-protein-coupled receptors (GPCRs)” (J Med Chem, 2014).)
